Laboratory results reported in ChEMBL document CHEMBL4699579, “A Peptidyl Inhibitor that Blocks Calcineurin-NFAT Interaction and Prevents Acute Lung Injury” (J Med Chem, 2020).
Calls of active or inactive are those of the source. The rule behind the calls is not given here. Positions of bridges follow the written chain, without caps; N, C: chain ends. Non-standard residues stand in square brackets, D forms with d. Residues, ends and D or L forms follow the SMILES beside them. Chains are numbered I, II in the order given. *: point of attachment. 2Nal = N[C@@H](Cc1ccc2ccccc2c1)C(=O)O; Val(3-OH) = CC(C)(O)[C@H](N)C(=O)O; Tle = CC(C)(C)[C@H](N)C(=O)O; X1 = O=C(c1ccnc(Cl)c1Cl)*; AEEA = NCCOCCOCC(=O)O

Test system: Mus musculus
Assay: Anti-inflammatory activity in BALB/c mouse model of LPS-induced ALI assessed as effect on LPS-induced TNFalpha in kidney at 5 mg/kg, iv pre-treated 4 hrs before LPS stimulation for 16 hrs
Format: functional, organism-based
Details: time 20.0 hrs

SMILES: CC[C@H](C)[C@H](NC(=O)[C@@H](NC(=O)c1ccnc(Cl)c1Cl)C(C)(C)C)C(=O)N[C@H](C(=O)N[C@H](C(=O)N[C@H](C(=O)N[C@@H](CCC(N)=O)C(=O)N[C@@H](Cc1c[nH]cn1)C(=O)N[C@H](CC(C)C)C(=O)N[C@@H](CO)C(=O)NCCOCCOCC(=O)N[C@@H](CCCCNC(=O)CC[C@@H]1NC(=O)[C@@H](CCCNC(=N)N)NC(=O)[C@H](CCCNC(=N)N)NC(=O)[C@@H](CCCNC(=N)N)NC(=O)[C@H](CCCNC(=N)N)NC(=O)[C@H](Cc2ccc3ccccc3c2)NC(=O)[C@@H](Cc2ccccc2)NC1=O)C(N)=O)[C@@H](C)O)[C@@H](C)CC)C(C)(C)O (I: X1-[Tle]I[Val(3-OH)]ITQH[dL]S[AEEA]K-NH2 / II: cyclo([2Nal]R[dR]R[dR]E[dF]); amide I:11-II:6)
- Activity: inactive
